{"source": "paper PMC10795798", "about": "(Journal of the American Chemical Society, 2023)", "target": "T1, CYP199A4 (Rhodopseudomonas palustris, UniProt Q2IU02)", "T1 sequence (Q2IU02 1-410)": "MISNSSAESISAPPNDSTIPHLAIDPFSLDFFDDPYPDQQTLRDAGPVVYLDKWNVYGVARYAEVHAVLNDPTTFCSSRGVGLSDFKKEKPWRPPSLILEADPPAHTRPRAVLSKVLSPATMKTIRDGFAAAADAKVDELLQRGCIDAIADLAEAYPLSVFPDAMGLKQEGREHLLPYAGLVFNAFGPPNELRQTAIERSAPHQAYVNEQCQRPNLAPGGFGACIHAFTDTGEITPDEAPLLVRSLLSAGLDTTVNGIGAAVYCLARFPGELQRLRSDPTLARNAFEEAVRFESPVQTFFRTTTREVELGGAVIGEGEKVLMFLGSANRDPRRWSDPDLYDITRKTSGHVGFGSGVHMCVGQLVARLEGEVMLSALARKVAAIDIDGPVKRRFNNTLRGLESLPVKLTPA", "test": "UV-vis spectral titration", "format": "binding", "data": [{"smiles": "CC(=O)c1ccc(C(=O)O)cc1", "note": "[4-acetylbenzoic acid]", "values": [{"measurement": "Kd", "result": "140 ± 5", "unit": "µM"}]}]}
